In patent US6767907B2, “4-aryl-1-(indanmethyl dihydrobenzofuranmethyl or dihydrobenzothiophenemethyl) piperidines tetrahydropyridines or piperazines” (H. Lundbeck A/S, priority 1994, dated 2004) one finds melting point, IC50 and inhibition data, which are given here for 25 molecules.

Read-outs that look alike come from different tables or passages of the source.

Data set [1] deals with T1, 5-HT2A receptors (Rattus norvegicus, UniProt P14842).
T1 construct: 5-HT2A receptors in membranes from rat is determined in vitro; from tissue; host or cells: rat cortex membranes
T1 sequence (P14842 whole entry): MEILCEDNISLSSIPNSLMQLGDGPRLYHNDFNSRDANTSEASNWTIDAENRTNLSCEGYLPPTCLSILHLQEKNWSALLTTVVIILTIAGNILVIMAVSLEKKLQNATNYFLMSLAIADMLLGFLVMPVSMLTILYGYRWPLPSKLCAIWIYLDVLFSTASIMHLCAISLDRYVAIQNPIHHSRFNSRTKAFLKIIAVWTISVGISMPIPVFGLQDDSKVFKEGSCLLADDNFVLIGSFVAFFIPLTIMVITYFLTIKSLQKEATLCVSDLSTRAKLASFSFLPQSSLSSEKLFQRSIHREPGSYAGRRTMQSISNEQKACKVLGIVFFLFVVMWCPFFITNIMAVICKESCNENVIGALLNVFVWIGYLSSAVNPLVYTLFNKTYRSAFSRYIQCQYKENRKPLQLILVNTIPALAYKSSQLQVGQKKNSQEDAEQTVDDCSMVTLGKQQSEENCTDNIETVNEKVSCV
Put plainly: Inhibition of 3H-Ketanserin binding to 5-HT2 receptors in rat cortex in vitro. Conditions: 3H-Ketanserin 0.5 nM; for IC50: membranes from rat cortex, read-out: 3H Ketanserin (5-HT2A) binding, IC50. How it is done:
Inhibition of ^3H-Ketanserin Binding to 5-HT2 Receptors in Rat Cortex in vitro.
By this method the inhibition by drugs of the binding of ^3H-Ketanserin (0.5 nM) to 5-HT2A receptors in membranes from rat is determined in vitro .

Data set [2] deals with T2, 5-HT1A receptors (Rattus norvegicus, UniProt P19327).
T2 construct: 5-HT1A receptors in membranes from rat brain minus cerebellum; from tissue; host or cells: rat brain minus cerebellum, membranes
T2 sequence (P19327 1-422): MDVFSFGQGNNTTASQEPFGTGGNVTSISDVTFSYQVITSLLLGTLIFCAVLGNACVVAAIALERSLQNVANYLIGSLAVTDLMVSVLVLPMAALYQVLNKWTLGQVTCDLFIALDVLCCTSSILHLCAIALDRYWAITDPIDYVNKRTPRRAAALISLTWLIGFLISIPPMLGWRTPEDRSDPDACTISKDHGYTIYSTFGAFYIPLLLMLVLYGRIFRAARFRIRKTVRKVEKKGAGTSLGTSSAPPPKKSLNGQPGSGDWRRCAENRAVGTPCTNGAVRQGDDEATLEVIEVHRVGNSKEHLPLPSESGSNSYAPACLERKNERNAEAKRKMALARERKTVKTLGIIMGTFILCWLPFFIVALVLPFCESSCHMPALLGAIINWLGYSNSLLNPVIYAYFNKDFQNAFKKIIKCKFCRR
Kind of data set: Inhibition of 3H-8-OH-DPAT binding to serotonin 5-HT1A receptors in rat brain in vitro. Particulars: for inhibition at 0.1 µM: read-out: 3H 8-OH DPAT (5-HT1A) binding, % inhibition of binding at 100 nM, at 100 nM, rat brain membranes. How it is done:
By this method the inhibition by drugs of the binding of the 5-HT1A agonist ^3H-8-OH-DPAT (1 nM) to 5-HT1A receptors in membranes from rat brain minus cerebellum is determined in vitro . Accordingly, this is a test for affinity for the 5-HT1A receptor. The test is performed as described by Hyttel et al., Drug. Dev. Res., 1988, 15, 389-404.

Where [3] appears, read: 3H-8-OH-DPAT 1 nM, membranes from rat brain minus cerebellum, read-out: 3H 8-OH DPAT (5-HT1A) binding, IC50.

As usually defined, the melting point is the temperature, or range, at which the solid turns liquid. As a reminder, the IC50 is the concentration needed to halve the response being measured. Consider `CC(=O)Nc1ccc2c(c1)C(CN1CCN(c3cccc(Cl)c3)CC1)CC2` (stereo not drawn) [Compound 4e, 1-(6-Acetylaminoindan-1-ylmethyl)-4-(3-chlorophenyl)piperazine], for which the melting point is 176 to 178 °C. Moreover, the IC50 in data set [1] was determined as 5 nM. The IC50 in data set [2] (setting [3]) was found to be 38 nM.
In the same order, the values of `CC(=O)Nc1ccc2c(c1)C(CN1CCC(c3ccc(F)cc3)CC1)CC2` (stereo not drawn) [Compound 4a, 1-(6-Acetylaminoindan-1-ylmethyl)-4-(4-fluorophenyl)piperidine] are 159 to 162 °C, 4 nM and 11 nM.
On to `CC(=O)Nc1ccc2c(c1)C(CN1CCC(c3ccc(C)cc3)CC1)CC2` (stereo not drawn) [Compound 4n, 1-(6-Acetylaminoindan-1-ylmethyl)-4-(4-methylphenyl)piperidine], for which the melting point lay in the range of 173 to 175 °C. Also, in data set [1], the IC50 was 3.9 nM. In addition, the concentration for half-maximal inhibition (IC50) in data set [2] (setting [3]) worked out at 27 nM.
The molecule `CC(=O)Nc1ccc2c(c1)C(CN1CCN(c3ccc(F)cc3)CC1)CC2` (stereo not drawn) [Compound 4b, 1-(6-Acetylaminoindan-1-ylmethyl)-4-(4-fluorophenyl)piperazine] returned a melting point of 179 to 187 °C. Besides, the IC50 in data set [1] stood at 2.9 nM. Further, the IC50 in data set [2] (setting [3]) turned out to be 21 nM.
`CC(=O)Nc1ccc2c(c1)C(CN1CCN(c3ccc(Cl)cc3)CC1)CC2` (stereo not drawn) [Compound 4d, 1-(6-Acetylaminoindan-1-ylmethyl)-4-(4-chlorophenyl)piperazine] gave a melting point of 191 to 194 °C. Besides, in data set [1], the IC50 amounted to 5 nM. Moreover, the IC50 in data set [2] (setting [3]) worked out at 12 nM.
In the case of `CC(=O)Nc1ccc2c(c1)C(CN1CCN(c3ccc(Cl)c(Cl)c3)CC1)CC2` (stereo not drawn) [Compound 4o, 1-(6-Acetylaminoindan-1-ylmethyl)-4-(3,4-dichlorophenyl)piperazine], the melting point lay within 160 to 163 °C. Further, the IC50 in data set [1] turned out to be 51 nM. Further, the IC50 in data set [2] (setting [3]) turned out to be 11 nM.
In turn, `O=C(Nc1ccc2c(c1)C(CN1CCC(c3ccc(F)cc3)CC1)CC2)C1CC1` (stereo not drawn) [Compound 4j, 1-(6-Cyclopropylcarbonylaminoindan-1-ylmethyl)-4-(4-fluorophenyl)piperidine] displayed a melting point of 134 to 140 °C. Further, the IC50 in data set [1] amounted to 15 nM. The IC50 in data set [2] (setting [3]) is 45 nM.
The inhibition is the drop in the measured response relative to a control, in per cent. The molecule `Nc1ccc2c(c1)C(CN1CCN(c3ccc(Cl)c(Cl)c3)CC1)CC2` (stereo not drawn) [Compound 2h, 1-(6-Aminoindan-1-ylmethyl)-4-(3,4-dichlorophenyl)piperazine] yielded a melting point of 156 to 158 °C. Further, the IC50 in data set [1] was 4.1 nM. Also, the inhibition at 0.1 µM in data set [2] (3H-8-OH-DPAT 1 nM) came to 19%.
In turn, `CN(C)C(=S)Nc1ccc2c(c1)C(CN1CCC(c3ccc(F)cc3)CC1)CC2` (stereo not drawn) [Compound 6b, 1-(6-Dimethylaminothiocarbonylaminoindan-1-ylmethyl)-4-(4-fluorophenyl)piperidine] displayed a melting point of 175 to 180 °C. In addition, the IC50 in data set [1] worked out at 6.7 nM. For the same molecule, the half-maximal inhibitory concentration (IC50) in data set [2] (setting [3]) worked out at 1200 nM.
As to `CC(=O)Nc1ccc2c(c1)C(CN1CCC(c3ccc(F)cc3)CC1)CC2` (single isomer, unassigned; (+)) [Compound 14a, (+)-1-(6-Acetylaminoindan-1-ylmethyl)-4-(4-fluorophenyl)piperidine], the IC50 in data set [1] amounted to 16 nM; in data set [2] (setting [3]) it was 120 nM.
Taken in the same sequence, the figures for `Nc1ccc2c(c1)C(CN1CCC(c3ccc(F)cc3)CC1)CC2` (stereo not drawn) [Compound 2a] were 2.5 nM and 480 nM.
Turning to `O=C(Nc1ccc2c(c1)C(CN1CCC(c3ccc(F)cc3)CC1)CC2)C1CCCC1` (stereo not drawn) [Compound 4k, 1-(6-Cyclopentylcarbonylaminoindan-1-ylmethyl)-4-(4-fluorophenyl)piperidine], the melting point was in the range of 177 to 178 °C. Moreover, the IC50 in data set [1] is 30 nM. The IC50 in data set [2] (setting [3]) was 240 nM.
For `CC(=O)Nc1ccc2c(c1)C(CN1CCN(c3ccccc3Cl)CC1)CC2` (stereo not drawn) [Compound 4f, 1-(6-Acetylaminoindan-1-ylmethyl)-4-(2-chlorophenyl)piperazine], the values for the IC50 in data set [1] and in data set [2] (setting [3]) were 65 nM and 84 nM, respectively.
`CNc1ccc2c(c1)C(CN1CCC(c3ccc(F)cc3)CC1)CC2` (stereo not drawn) [Compound 16a, 4-(4-Fluorophenyl)-1-(6-methylaminoindan-1-ylmethyl)piperidine]: the IC50 in data set [1] was 1.6 nM; in data set [2] (setting [3]), 170 nM.
As for `CC(=O)Nc1ccc2c(c1)C(CN1CC=C(c3ccc(F)cc3)CC1)CC2` (stereo not drawn) [Compound 4h, 1-(6-Acetylaminoindan-1-ylmethyl)-4-(4-fluorophenyl)-1,2,3,6-tetrahydropyridine], the melting point is 156 to 161 °C. For the same molecule, the IC50 in data set [1] stood at 2.8 nM. Also, the half-maximal inhibitory concentration (IC50) in data set [2] (setting [3]) was found to be 11 nM.
On to `CC(=O)Nc1ccc2c(c1)C(CN1CC=C(c3c[nH]c4cc(Cl)ccc34)CC1)CC2` (stereo not drawn) [Compound 11e, 3-[1-(6-Acetylaminoindan-1-ylmethyl)-1,2,3,6-tetrahydropyridin-4-yl]-6-chloro-1H-indole], for which the figures for the IC50 in data set [1] and in data set [2] were 130 nM and 27 nM, respectively.
Consider `CC(=O)Nc1ccc2c(c1)C(CN1CC=C(c3c[nH]c4ccc(Cl)cc34)CC1)CS2` (stereo not drawn) [Compound 11b, 3-[1-(5-Acetylamino-2,3-dihydrobenzothiophen-3-ylmethyl)-1,2,3,6-tetrahydropyridin-4-yl]-5-chloro-1H-indole], for which the IC50 is 44 nM in data set [1] and 21 nM in data set [2] (setting [3]).
The molecule `CC(=O)Nc1ccc2c(c1)C(CN1CC=C(c3cn(C)c4cc(Cl)ccc34)CC1)CC2` (stereo not drawn) [Compound 15a, 3-[1-(6-Acetylaminoindan-1-ylmethyl)-1,2,3,6-tetrahydropyridin-4-yl]-6-chloro-1-methyl-1H-indole] returned a melting point of 189 to 193 °C. Besides, the inhibition at 0.1 µM in data set [1] (read-out: 3H Ketanserin (5-HT2A) binding, % inhibition of binding at 100 nM, at 100 nM, rat cortex membranes) came to 25%. Besides, in data set [2] (setting [3]), the IC50 was determined as 91 nM.
Take `O=C(Nc1ccc(F)cc1)Nc1ccc2c(c1)C(CN1CCC(c3ccc(F)cc3)CC1)CC2` (stereo not drawn) [Compound 5b, 1-[6-(4-Fluorophenyl)aminocarbonylaminoindan-1-ylmethyl]-4-(4-fluorophenyl)-piperidine]: the melting point fell in the range of 235 to 238 °C. Moreover, the half-inhibitory concentration (IC50) in data set [1] stood at 37 nM. The IC50 in data set [2] (setting [3]) was over 100000 nM.
In the same order, the values of `O=C(Nc1ccc2c(c1)C(CN1CCC(c3ccc(F)cc3)CC1)CC2)N1CCCC1` (stereo not drawn) [Compound 6c, 4-(4-fluorophenyl)-1-[6-(1-pyrrolidinyl)carbonylaminoindan-1-ylmethyl]piperidine] are 190 to 193 °C, 9.9 nM and 8200 nM.
As for `O=C1CCCN1c1ccc2c(c1)C(CN1CCC(c3ccc(F)cc3)CC1)CC2` (stereo not drawn) [Compound 12a, 4-(4-Fluorophenyl)-1-[6-(1-pyrrolidin-2-onyl)indan-1-ylmethyl]piperidine], the half-maximal inhibitory concentration (IC50) came to 3.5 nM in data set [1] and 340 nM in data set [2] (setting [3]).
Molecule `CS(=O)(=O)Nc1ccc2c(c1)C(CN1CCC(c3ccc(F)cc3)CC1)CC2` (stereo not drawn) [Compound 4i, 4-(4-Fluorophenyl)-1-(6-methansulfonylaminoindan-1-ylmethyl)piperidine] had a melting point of 152 to 155 °C. Besides, the IC50 in data set [1] is 2.1 nM. The IC50 in data set [2] (setting [3]) is 500 nM.
Consider `CNC(=O)Nc1ccc2c(c1)C(CN1CCC(c3ccc(F)cc3)CC1)CC2` (stereo not drawn) [Compound 5a, 4-(4-Fluorophenyl)-1-(6-methylaminocarbonylaminoindan-1-ylmethyl)piperidine], for which the IC50 in data set [1] was found to be 5.1 nM; in data set [2] (setting [3]) it was 35 nM.
On to `CCOC(=O)Nc1ccc2c(c1)C(CN1CCC(c3ccc(F)cc3)CC1)CC2` (stereo not drawn) [Compound 4l, 1-(6-Ethyloxycarbonylaminoindan-1-ylmethyl)-4-(4-fluorophenyl)piperidine], for which, in data set [1], the IC50 was 55 nM. Also, in data set [2] (3H-8-OH-DPAT 1 nM), the inhibition at 0.1 µM amounted to 26%.
Regarding `CC(=O)Nc1ccc2c(c1)C(CN1CCC(c3ccc(F)cc3)CC1)CS2` (stereo not drawn) [Compound 4c, 1-(5-Acetylamino-2,3-dihydrobenzothiophen-3-ylmethyl)-4-(4-fluorophenyl)piperidine], the melting point lay in the range of 140 to 142 °C. The IC50 in data set [1] came to 2.3 nM. The IC50 in data set [2] (setting [3]) was 28 nM.
